According to ChEMBL document CHEMBL1201862, “PubChem BioAssay data set” (2004):
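96-well plates; 48 h exposure; 5 concentrations. Endpoints by linear interpolation between flanking doses. Not reached: highest tested concentration assigned. GI50 = concentration required for 50% inhibition of growth.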 Activity calls are given as the source filed them. Rule as the data show it: active = GI50 up to about 1.1 µM and inactive = higher.

How the values were obtained:
Experiment in all cases: NCI-60 cell line screen, 48 h
MDA-MB-435 = system: MDA-MB-435
A498 = system: A498
RXF 393 = system: RXF 393
Malme-3M = system: Malme-3M
BT-549 = system: BT-549
Hs-578T = system: Hs-578T
NCI-H23 = system: NCI-H23
ACHN = system: ACHN
NCI-H522 = system: NCI-H522
SF-268 = system: SF-268
HOP-62 = system: HOP-62
M14 = system: M14
A549 = system: A549
HT-29 = system: HT-29
UO-31 = system: UO-31
NCI-H226 = system: NCI-H226
MCF7 = system: MCF7
SK-OV-3 = system: SK-OV-3
COLO 205 = system: COLO 205

| Structure (SMILES) | GI50 (MDA-MB-435) | GI50 (A498) | GI50 (RXF 393) | GI50 (Malme-3M) | GI50 (BT-549) | GI50 (Hs-578T) | GI50 (NCI-H23) | GI50 (ACHN) | GI50 (NCI-H522) | GI50 (SF-268) | GI50 (HOP-62) | GI50 (M14) | GI50 (A549) | GI50 (HT-29) | GI50 (UO-31) | GI50 (NCI-H226) | GI50 (MCF7) | GI50 (SK-OV-3) | GI50 (COLO 205) |
| --- | --- | --- | --- | --- | --- | --- | --- | --- | --- | --- | --- | --- | --- | --- | --- | --- | --- | --- | --- |
| Cn1c(=O)c2nc(CCCCC(=O)O)[nH]c2n(C)c1=O | > 100 µM (inactive) | > 100 µM (inactive) | > 100 µM (inactive) | > 100 µM (inactive) | > 100 µM (inactive) | 68.5 µM (inactive) | > 100 µM (inactive) | > 100 µM (inactive) | > 100 µM (inactive) | > 100 µM (inactive) | > 100 µM (inactive) | > 100 µM (inactive) | > 100 µM (inactive) | > 100 µM (inactive) | > 100 µM (inactive) | > 100 µM (inactive) | – | – | – |
| COc1ccc(C[C@H]2COC(=O)[C@@H]2Cc2ccccc2)cc1OC | – | > 100 µM (inactive) | – | > 100 µM (inactive) | – | > 100 µM (inactive) | > 100 µM (inactive) | > 100 µM (inactive) | – | – | > 100 µM (inactive) | – | > 100 µM (inactive) | > 100 µM (inactive) | – | > 100 µM (inactive) | > 100 µM (inactive) | > 100 µM (inactive) | – |
| COC(=O)[C@@H]1C[C@H]2[C@H](c3ccccc3Br)[C@@H](OC(C)=O)[C@@H](OCc3ccccc3)ON2O1 | > 100 µM (inactive) | – | > 100 µM (inactive) | – | > 100 µM (inactive) | – | > 100 µM (inactive) | > 100 µM (inactive) | – | > 100 µM (inactive) | > 100 µM (inactive) | > 100 µM (inactive) | > 100 µM (inactive) | > 100 µM (inactive) | > 100 µM (inactive) | – | > 100 µM (inactive) | > 100 µM (inactive) | > 100 µM (inactive) |
| CCc1n[nH]c(=O)n1/N=C/c1ccccc1O | > 100 µM (inactive) | – | > 100 µM (inactive) | – | > 100 µM (inactive) | 28 µM (inactive) | > 100 µM (inactive) | > 100 µM (inactive) | > 100 µM (inactive) | > 100 µM (inactive) | > 100 µM (inactive) | > 100 µM (inactive) | > 100 µM (inactive) | – | > 100 µM (inactive) | – | > 100 µM (inactive) | > 100 µM (inactive) | > 100 µM (inactive) |
| Cc1ccc(S(=O)(=O)NC(=O)NCCC(=O)O)cc1 | – | – | > 100 µM (inactive) | > 100 µM (inactive) | 25.8 µM (inactive) | > 100 µM (inactive) | 19.3 µM (inactive) | > 100 µM (inactive) | > 100 µM (inactive) | > 100 µM (inactive) | > 100 µM (inactive) | > 100 µM (inactive) | > 100 µM (inactive) | > 100 µM (inactive) | > 100 µM (inactive) | – | > 100 µM (inactive) | > 100 µM (inactive) | > 100 µM (inactive) |
| N#Cc1[nH]c(=O)n(-c2ccccc2)c1N | > 10 µM (inactive) | > 10 µM (inactive) | > 10 µM (inactive) | > 10 µM (inactive) | – | > 10 µM (inactive) | > 10 µM (inactive) | > 10 µM (inactive) | – | > 10 µM (inactive) | > 10 µM (inactive) | > 10 µM (inactive) | > 10 µM (inactive) | > 10 µM (inactive) | > 10 µM (inactive) | > 10 µM (inactive) | – | > 10 µM (inactive) | > 10 µM (inactive) |
| COc1ccc2c(c1)CCCN1CCc3cc(OC)c(OC)cc3C21 (centres undefined) | > 100 µM (inactive) | – | – | > 100 µM (inactive) | 4.09 µM (inactive) | – | – | 84.1 µM (inactive) | – | > 100 µM (inactive) | > 100 µM (inactive) | > 100 µM (inactive) | > 100 µM (inactive) | 47.9 µM (inactive) | 25.5 µM (inactive) | > 100 µM (inactive) | > 100 µM (inactive) | > 100 µM (inactive) | > 100 µM (inactive) |
| Cc1nc2ccccc2c(=O)n1NC(=O)c1ccccn1 | > 100 µM (inactive) | > 100 µM (inactive) | > 100 µM (inactive) | > 100 µM (inactive) | > 100 µM (inactive) | > 100 µM (inactive) | > 100 µM (inactive) | > 100 µM (inactive) | > 100 µM (inactive) | > 100 µM (inactive) | > 100 µM (inactive) | > 100 µM (inactive) | > 100 µM (inactive) | > 100 µM (inactive) | > 100 µM (inactive) | – | – | > 100 µM (inactive) | > 100 µM (inactive) |
| CC1CC/C(=C\c2ccc(F)cc2)C2=C1C(c1ccc(F)cc1)n1c(s/c(=C/c3cccc(Br)c3)c1=O)=N2 (centres undefined) | > 100 µM (inactive) | > 100 µM (inactive) | > 100 µM (inactive) | – | – | > 100 µM (inactive) | – | > 100 µM (inactive) | – | > 100 µM (inactive) | > 100 µM (inactive) | > 100 µM (inactive) | > 100 µM (inactive) | > 100 µM (inactive) | – | – | > 100 µM (inactive) | > 100 µM (inactive) | – |
| O=[N+]([O-])c1ccc(-c2nn3c(C45CC6CC(CC(C6)C4)C5)nnc3s2)c(Cl)c1 | > 100 µM (inactive) | > 100 µM (inactive) | > 100 µM (inactive) | > 100 µM (inactive) | – | > 100 µM (inactive) | > 100 µM (inactive) | > 100 µM (inactive) | > 100 µM (inactive) | > 100 µM (inactive) | > 100 µM (inactive) | > 100 µM (inactive) | > 100 µM (inactive) | > 100 µM (inactive) | > 100 µM (inactive) | > 100 µM (inactive) | – | > 100 µM (inactive) | > 100 µM (inactive) |
| Cc1ccc(/N=N/c2c(O)ccc3ccccc23)cc1 | > 100 µM (inactive) | > 100 µM (inactive) | > 100 µM (inactive) | > 100 µM (inactive) | > 100 µM (inactive) | > 100 µM (inactive) | > 100 µM (inactive) | > 100 µM (inactive) | > 100 µM (inactive) | > 100 µM (inactive) | 82 µM (inactive) | > 100 µM (inactive) | > 100 µM (inactive) | > 100 µM (inactive) | > 100 µM (inactive) | > 100 µM (inactive) | – | > 100 µM (inactive) | > 100 µM (inactive) |
| COc1cc(C2C(Cl)C(=O)N2c2c(C)n(C)n(-c3ccccc3)c2=O)ccc1O (centres undefined) | 16.4 µM (inactive) | – | 18.1 µM (inactive) | 28.3 µM (inactive) | 20.1 µM (inactive) | – | 14.7 µM (inactive) | 20.1 µM (inactive) | 13.6 µM (inactive) | 24.9 µM (inactive) | 23.7 µM (inactive) | 15.7 µM (inactive) | 26.2 µM (inactive) | 17.7 µM (inactive) | 16.9 µM (inactive) | 22.3 µM (inactive) | 13.2 µM (inactive) | 29.6 µM (inactive) | 16.3 µM (inactive) |
| NN/C(=N\S(=O)(=O)c1ccc(-c2ccccn2)s1)Nc1ccc(Cl)cc1 | – | > 100 µM (inactive) | 30.5 µM (inactive) | – | > 100 µM (inactive) | – | > 100 µM (inactive) | > 100 µM (inactive) | 0.265 µM (active) | 22.1 µM (inactive) | 38.9 µM (inactive) | > 100 µM (inactive) | 59 µM (inactive) | > 100 µM (inactive) | 43.9 µM (inactive) | 75.2 µM (inactive) | > 100 µM (inactive) | 88.9 µM (inactive) | > 100 µM (inactive) |
